Activity calls are given as the source filed them.
Experiments:
[1] = molecular target: T1, Zinc finger protein mex-5 (Caenorhabditis elegans, UniProt Q9XUB2); assay: potency of MEX-5 RNA-binding blockers – biochemical, C. elegans, fluorescence polarization, dose response (AID 1960)
T1 sequence (Q9XUB2 whole entry): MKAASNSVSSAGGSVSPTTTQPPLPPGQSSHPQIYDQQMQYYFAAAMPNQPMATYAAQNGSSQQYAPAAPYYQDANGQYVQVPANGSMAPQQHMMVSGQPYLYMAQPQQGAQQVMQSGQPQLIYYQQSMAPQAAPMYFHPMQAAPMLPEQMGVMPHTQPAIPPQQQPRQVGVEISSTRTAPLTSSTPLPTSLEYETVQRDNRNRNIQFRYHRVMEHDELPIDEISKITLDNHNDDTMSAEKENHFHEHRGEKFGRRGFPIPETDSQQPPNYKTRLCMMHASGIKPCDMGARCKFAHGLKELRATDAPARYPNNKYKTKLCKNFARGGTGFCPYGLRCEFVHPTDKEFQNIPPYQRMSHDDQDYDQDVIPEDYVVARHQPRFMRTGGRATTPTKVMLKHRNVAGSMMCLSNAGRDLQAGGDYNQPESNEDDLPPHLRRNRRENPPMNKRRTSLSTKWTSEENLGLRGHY

[2] = molecular target: T2, Apoptotic protease-activating factor 1 (Homo sapiens, UniProt O14727); type: functional
T2 sequence (O14727 whole entry): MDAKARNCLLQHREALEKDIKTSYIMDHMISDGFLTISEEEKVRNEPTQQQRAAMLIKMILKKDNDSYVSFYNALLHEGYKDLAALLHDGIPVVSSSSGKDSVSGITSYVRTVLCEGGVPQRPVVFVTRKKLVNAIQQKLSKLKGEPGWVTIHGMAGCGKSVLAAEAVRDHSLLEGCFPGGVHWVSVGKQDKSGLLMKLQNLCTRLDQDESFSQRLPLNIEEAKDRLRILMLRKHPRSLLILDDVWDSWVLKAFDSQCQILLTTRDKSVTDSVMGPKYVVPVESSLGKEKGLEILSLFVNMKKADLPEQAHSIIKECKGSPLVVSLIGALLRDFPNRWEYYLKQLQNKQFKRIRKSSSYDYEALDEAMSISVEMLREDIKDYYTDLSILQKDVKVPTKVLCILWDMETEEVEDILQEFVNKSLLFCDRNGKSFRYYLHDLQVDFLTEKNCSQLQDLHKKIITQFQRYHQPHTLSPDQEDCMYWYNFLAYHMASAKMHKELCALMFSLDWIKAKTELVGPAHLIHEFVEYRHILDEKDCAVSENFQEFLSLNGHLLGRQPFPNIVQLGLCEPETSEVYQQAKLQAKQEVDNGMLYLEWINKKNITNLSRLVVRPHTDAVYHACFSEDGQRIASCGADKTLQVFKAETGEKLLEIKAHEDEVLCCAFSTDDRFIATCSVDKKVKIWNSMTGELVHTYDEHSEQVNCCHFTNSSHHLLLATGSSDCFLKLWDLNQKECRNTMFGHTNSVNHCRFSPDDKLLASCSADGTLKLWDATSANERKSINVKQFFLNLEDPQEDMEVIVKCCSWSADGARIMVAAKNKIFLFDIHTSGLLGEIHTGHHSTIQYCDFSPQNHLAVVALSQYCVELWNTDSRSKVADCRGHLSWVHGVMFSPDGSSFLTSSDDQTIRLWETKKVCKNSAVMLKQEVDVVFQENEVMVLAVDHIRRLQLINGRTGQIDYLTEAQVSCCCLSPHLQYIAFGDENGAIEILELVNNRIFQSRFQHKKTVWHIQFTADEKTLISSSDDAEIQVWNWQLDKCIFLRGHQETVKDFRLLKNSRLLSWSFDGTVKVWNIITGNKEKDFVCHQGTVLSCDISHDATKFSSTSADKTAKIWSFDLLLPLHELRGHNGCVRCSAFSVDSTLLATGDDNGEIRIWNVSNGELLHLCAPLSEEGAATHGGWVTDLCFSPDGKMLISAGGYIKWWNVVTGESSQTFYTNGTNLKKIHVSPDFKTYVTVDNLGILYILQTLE

Beta-lactamase [3] = molecular target: Beta-lactamase (Pseudomonas aeruginosa, UniProt Q79MP6);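 further: biochemical dose-response test of metallo-beta-lactamase enzyme inhibition, read out by epi-absorbance; purified recombinant IMP-1 metallo-beta-lactamase with nitrocefin as substrate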
[4] = molecular target: T3, RNA-binding protein pos-1 (Caenorhabditis elegans, UniProt G5EF15); assay: disruptors of C. elegans POS-1 RNA interaction – biochemical, fluorescence polarization, dose response (AID 1964);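 further: purified POS-1 fused to maltose binding protein made in E. coli; potency of compounds blocking POS-1 binding to fluorescent RNA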
T3 sequence (G5EF15 whole entry): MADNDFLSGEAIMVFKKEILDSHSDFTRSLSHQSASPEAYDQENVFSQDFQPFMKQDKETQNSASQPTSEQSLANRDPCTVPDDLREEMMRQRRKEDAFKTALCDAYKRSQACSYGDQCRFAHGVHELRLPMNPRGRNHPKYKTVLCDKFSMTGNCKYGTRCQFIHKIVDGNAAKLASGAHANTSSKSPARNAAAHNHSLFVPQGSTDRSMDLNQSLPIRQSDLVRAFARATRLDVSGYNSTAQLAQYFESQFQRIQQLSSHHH

Beta-lactamase [5] = molecular target: Beta-lactamase (Salmonella choleraesuis (strain SC-B67), UniProt Q5J463)
[6] = molecular target: T4, Low molecular weight phosphotyrosine protein phosphatase (Homo sapiens, UniProt P24666); type: functional; details: read-out: IC50_Mean;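 further: Dose-response confirmation assay measuring inhibition of LMPTP enzyme activity by fluorescence intensity read-out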
T4 sequence (P24666 whole entry): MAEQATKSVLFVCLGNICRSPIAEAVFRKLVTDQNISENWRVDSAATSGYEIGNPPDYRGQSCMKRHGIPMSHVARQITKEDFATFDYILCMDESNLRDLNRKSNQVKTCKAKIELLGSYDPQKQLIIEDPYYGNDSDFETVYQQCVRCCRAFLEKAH

[7] = molecular target: Induced myeloid leukemia cell differentiation protein Mcl-1 (Homo sapiens, UniProt Q07820); type: functional
[8] = molecular target: T5, Sentrin-specific protease 8 (Homo sapiens, UniProt Q96LD8); type: functional
T5 sequence (Q96LD8 whole entry): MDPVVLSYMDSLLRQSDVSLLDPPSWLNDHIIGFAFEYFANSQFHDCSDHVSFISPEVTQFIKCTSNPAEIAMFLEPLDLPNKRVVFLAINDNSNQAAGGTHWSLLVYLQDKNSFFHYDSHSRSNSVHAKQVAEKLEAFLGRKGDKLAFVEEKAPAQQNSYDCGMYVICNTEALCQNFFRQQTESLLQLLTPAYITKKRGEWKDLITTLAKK

[9] = molecular target: T5, Sentrin-specific protease 8; type: functional; remark: listed apart in the source
[10] = molecular target: T6, Corticotropin-releasing factor receptor 2/Corticotropin-releasing factor-binding protein (Homo sapiens, UniProt P24387+Q13324); assay: activators of CRF receptor 2 with binding protein – uHTS hits, confirmation (AID 602473); type: functional; details: read-out: EC50_Mean
T6 sequence (Q13324 whole entry): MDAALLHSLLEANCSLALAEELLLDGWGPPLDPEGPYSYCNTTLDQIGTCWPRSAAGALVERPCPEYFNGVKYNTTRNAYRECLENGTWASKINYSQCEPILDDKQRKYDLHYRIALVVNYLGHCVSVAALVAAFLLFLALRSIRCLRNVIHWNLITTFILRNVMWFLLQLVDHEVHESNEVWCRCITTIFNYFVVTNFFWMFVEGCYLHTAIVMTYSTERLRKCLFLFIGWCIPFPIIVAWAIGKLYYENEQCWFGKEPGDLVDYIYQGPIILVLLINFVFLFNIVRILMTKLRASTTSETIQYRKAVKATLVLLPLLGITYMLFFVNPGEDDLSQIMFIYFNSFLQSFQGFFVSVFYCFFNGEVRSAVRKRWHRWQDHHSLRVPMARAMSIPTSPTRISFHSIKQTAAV
T6 sequence (P24387 whole entry): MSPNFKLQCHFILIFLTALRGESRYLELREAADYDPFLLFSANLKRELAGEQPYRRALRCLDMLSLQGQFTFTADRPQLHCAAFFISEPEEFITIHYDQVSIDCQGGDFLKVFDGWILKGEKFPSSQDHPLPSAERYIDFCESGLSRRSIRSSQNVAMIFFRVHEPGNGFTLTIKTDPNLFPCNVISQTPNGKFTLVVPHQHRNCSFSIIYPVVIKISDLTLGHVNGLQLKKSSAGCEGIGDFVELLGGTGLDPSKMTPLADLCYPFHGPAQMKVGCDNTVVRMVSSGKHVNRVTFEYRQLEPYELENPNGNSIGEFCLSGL

[11] = molecular target: T6, Corticotropin-releasing factor receptor 2/Corticotropin-releasing factor-binding protein; assay: Dose Response confirmation of uHTS hits for small molecule antagonists of the CRF-binding protein and CRF-R2 receptor complex.; type: functional; details: read-out: IC50_Mean
[12] = Luminescence Cell-Based Dose Retest to Confirm Inhibitors of Cancer Stem Cells. [Related pubchem assays (depositor defined):AID2717, AID2721]; type: functional; details: Homo sapiens
[13] = blockers of CRF-binding protein–CRF-R2 complex – cell-based, uHTS hits, 384-well, dose response (AID 651639); type: functional, Homo sapiens; details: read-out: IC50_Mean
[14] = molecular target: T7, Voltage-gated N-type calcium channel alpha-1B subunit/Amyloid beta A4 precursor protein-binding family A member 1 (Homo sapiens, UniProt Q00975+Q02410); type: protein assay
[15] = molecular target: T7, Voltage-gated N-type calcium channel alpha-1B subunit/Amyloid beta A4 precursor protein-binding family A member 1; type: protein assay; remark: listed apart in the source
Prothrombin = Prothrombin (Bos taurus, UniProt P00735); assay: thrombin protease inhibitors – biochemical, fluorescence polarization, uHTS hits, dose response (AID 602369); type: functional
[16] = molecular target: Arf-GAP with SH3 domain, ANK repeat and PH domain-containing protein 1 (Homo sapiens, UniProt Q9ULH1); type: functional;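 further: biochemical fluorescence polarization dose–response screen measuring inhibition of ASAP1; ASAP1 GAP domain stimulating GTP hydrolysis by truncated human ARF1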
[17] = molecular target: 72 kDa type IV collagenase (Homo sapiens, UniProt P08253); assay: Dose Response validation of uHTS RPN11 inhibitor hits using a MMP-2 Fluorescence assay.; type: functional
[18] = molecular target: 26S proteasome non-ATPase regulatory subunit 14 (Homo sapiens, UniProt O00487); assay: inhibition of proteasome subunit RPN11 – biochemical, fluorescence polarization, uHTS hits, confirmation (AID 602368); type: functional
[19] = molecular target: T8, Carboxy-terminal domain RNA polymerase II polypeptide A small phosphatase 1 (Homo sapiens, UniProt Q9GZU7); assay: CTDSP1 inhibitors, concentration-response, biochemical, absorbance readout, ultra-high-throughput screen actives (AID 540297); type: functional
T8 sequence (Q9GZU7 whole entry): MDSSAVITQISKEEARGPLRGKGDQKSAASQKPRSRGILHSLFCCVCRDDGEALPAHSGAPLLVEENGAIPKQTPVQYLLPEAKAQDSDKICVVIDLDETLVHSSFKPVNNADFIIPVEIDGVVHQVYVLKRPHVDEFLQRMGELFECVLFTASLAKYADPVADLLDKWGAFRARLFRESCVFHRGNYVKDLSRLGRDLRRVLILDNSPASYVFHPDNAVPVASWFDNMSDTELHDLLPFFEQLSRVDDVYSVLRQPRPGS

[20] = viability loss in HeLa cells – cytotoxicity control for MgcRacGAP inhibitor project, dose response (AID 624300); type: functional
[21] = molecular target: T9, Rac GTPase-activating protein 1 (Homo sapiens, UniProt Q9H0H5); assay: blockers of MgcRacGAP-driven Rac1 GTP hydrolysis – biochemical, ADP Hunter fluorescence, primary and confirmatory, confirmation (AID 624330); type: functional
T9 sequence (Q9H0H5 whole entry): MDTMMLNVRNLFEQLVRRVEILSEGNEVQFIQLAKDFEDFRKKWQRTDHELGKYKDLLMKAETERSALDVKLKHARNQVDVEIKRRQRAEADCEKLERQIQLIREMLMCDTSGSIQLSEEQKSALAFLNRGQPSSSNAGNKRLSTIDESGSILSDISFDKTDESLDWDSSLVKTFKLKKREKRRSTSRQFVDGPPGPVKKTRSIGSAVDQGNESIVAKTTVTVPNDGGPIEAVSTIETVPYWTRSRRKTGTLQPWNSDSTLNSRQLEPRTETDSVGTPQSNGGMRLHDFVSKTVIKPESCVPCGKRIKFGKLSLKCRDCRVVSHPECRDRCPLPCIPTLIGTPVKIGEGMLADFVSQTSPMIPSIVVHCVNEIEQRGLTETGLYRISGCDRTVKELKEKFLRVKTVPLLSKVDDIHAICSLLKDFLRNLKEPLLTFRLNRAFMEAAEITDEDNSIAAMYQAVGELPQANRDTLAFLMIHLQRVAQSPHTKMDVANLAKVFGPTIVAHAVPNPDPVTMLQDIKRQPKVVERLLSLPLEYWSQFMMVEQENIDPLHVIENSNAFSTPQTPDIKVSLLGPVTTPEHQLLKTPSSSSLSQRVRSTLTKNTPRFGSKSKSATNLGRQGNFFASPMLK
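Wherever AC50 is given: cells exposed to compound for roughly 70 hours or longer before luminescence read.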

Chain of Beta-lactamase (Pseudomonas aeruginosa, UniProt Q79MP6) (Q79MP6 whole entry, the tested form may be a part): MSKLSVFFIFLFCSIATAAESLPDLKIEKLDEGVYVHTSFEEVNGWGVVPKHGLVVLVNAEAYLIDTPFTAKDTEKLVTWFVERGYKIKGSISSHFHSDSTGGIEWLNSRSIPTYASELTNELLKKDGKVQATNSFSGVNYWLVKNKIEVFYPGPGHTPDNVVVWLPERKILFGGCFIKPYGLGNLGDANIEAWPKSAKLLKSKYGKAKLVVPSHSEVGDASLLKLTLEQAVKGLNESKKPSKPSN
T7 sequence (Q00975 whole entry): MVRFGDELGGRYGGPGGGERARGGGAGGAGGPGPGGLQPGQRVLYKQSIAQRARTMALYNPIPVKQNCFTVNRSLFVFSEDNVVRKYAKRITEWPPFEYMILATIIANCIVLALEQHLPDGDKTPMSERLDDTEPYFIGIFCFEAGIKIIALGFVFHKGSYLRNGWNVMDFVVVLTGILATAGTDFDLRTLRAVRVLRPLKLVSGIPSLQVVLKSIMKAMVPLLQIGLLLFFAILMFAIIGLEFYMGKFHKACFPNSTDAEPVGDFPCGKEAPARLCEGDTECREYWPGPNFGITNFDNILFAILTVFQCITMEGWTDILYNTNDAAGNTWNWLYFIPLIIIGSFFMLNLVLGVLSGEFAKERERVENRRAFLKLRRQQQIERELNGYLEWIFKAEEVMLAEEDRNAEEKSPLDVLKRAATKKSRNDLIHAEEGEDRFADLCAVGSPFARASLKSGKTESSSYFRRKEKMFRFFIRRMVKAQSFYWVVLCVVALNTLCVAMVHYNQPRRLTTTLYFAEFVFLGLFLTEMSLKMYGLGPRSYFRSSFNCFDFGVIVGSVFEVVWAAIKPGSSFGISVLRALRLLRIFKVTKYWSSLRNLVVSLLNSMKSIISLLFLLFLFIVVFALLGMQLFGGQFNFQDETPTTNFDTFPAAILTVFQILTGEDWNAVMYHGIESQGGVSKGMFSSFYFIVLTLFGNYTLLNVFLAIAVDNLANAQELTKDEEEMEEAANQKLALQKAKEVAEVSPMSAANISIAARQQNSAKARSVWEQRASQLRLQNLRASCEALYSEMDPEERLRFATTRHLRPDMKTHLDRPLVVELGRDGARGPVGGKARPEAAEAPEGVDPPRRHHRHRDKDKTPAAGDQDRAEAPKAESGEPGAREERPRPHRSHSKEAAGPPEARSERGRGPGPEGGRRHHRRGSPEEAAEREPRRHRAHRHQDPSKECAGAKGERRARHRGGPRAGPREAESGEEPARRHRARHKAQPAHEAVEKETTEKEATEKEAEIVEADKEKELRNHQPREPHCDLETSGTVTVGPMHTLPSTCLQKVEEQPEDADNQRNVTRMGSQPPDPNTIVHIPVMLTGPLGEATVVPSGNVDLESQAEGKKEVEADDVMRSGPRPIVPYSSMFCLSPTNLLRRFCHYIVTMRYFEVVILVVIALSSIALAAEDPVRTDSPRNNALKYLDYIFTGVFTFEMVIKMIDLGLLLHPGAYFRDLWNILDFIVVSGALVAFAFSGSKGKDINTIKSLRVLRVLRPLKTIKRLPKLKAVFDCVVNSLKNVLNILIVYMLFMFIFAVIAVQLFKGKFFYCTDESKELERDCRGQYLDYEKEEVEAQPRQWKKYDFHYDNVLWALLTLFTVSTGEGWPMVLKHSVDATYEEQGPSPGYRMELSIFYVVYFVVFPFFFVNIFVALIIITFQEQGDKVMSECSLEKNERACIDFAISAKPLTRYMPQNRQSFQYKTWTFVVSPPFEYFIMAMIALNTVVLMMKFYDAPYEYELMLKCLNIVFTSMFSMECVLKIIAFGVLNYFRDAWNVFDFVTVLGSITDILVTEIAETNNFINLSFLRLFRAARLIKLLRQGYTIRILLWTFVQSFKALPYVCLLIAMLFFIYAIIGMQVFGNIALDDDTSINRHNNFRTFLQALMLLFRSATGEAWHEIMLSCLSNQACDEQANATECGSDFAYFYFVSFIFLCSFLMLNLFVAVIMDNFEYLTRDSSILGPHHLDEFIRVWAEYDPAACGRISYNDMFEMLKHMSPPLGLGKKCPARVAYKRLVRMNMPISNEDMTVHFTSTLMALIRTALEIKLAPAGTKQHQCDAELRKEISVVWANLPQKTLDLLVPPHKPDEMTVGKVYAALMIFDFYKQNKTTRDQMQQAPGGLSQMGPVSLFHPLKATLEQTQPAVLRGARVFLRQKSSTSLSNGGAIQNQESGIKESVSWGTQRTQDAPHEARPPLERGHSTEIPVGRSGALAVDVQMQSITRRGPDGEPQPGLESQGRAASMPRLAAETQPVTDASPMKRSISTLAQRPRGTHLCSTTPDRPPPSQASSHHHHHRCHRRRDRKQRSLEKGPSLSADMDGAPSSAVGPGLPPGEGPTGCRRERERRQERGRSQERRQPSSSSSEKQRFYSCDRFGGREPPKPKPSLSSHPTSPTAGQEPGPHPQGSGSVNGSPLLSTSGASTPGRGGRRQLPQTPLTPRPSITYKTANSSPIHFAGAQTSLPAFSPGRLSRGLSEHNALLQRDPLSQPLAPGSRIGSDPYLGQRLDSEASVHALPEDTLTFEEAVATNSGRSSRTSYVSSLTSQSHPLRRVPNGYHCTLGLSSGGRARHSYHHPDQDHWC
T7 sequence (Q02410 whole entry): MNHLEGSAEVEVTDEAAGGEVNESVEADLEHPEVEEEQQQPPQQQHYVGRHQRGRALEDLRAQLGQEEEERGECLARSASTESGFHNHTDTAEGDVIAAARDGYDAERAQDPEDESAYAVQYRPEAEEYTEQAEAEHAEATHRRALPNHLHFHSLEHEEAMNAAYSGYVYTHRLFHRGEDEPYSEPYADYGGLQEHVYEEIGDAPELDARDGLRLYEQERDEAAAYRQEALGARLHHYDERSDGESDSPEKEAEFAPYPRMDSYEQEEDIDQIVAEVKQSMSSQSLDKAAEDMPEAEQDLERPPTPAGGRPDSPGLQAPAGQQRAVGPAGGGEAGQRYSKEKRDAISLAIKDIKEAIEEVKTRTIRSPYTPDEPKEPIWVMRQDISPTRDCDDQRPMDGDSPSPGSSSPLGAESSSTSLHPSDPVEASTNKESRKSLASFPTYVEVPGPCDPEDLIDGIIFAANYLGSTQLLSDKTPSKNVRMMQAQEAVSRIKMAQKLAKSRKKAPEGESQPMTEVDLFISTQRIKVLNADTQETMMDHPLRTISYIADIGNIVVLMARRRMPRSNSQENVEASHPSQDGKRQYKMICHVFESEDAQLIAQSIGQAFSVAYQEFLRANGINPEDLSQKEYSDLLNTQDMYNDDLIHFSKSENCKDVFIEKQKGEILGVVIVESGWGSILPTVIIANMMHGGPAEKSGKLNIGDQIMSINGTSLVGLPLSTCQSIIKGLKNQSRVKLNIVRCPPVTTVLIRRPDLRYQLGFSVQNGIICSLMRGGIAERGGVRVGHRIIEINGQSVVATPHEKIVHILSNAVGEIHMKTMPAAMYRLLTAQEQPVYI
Chain of Beta-lactamase (Salmonella choleraesuis (strain SC-B67), UniProt Q5J463) (Q5J463 whole entry): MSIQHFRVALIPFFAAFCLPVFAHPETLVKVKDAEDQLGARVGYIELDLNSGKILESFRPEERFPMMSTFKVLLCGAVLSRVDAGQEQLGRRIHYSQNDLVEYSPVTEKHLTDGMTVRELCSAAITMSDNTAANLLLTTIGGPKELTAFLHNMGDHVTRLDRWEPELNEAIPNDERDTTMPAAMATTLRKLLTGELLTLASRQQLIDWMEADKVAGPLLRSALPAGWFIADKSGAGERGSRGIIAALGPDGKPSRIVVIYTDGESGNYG
Chain of Arf-GAP with SH3 domain, ANK repeat and PH domain-containing protein 1 (Q9ULH1 whole entry, the tested form may be a part): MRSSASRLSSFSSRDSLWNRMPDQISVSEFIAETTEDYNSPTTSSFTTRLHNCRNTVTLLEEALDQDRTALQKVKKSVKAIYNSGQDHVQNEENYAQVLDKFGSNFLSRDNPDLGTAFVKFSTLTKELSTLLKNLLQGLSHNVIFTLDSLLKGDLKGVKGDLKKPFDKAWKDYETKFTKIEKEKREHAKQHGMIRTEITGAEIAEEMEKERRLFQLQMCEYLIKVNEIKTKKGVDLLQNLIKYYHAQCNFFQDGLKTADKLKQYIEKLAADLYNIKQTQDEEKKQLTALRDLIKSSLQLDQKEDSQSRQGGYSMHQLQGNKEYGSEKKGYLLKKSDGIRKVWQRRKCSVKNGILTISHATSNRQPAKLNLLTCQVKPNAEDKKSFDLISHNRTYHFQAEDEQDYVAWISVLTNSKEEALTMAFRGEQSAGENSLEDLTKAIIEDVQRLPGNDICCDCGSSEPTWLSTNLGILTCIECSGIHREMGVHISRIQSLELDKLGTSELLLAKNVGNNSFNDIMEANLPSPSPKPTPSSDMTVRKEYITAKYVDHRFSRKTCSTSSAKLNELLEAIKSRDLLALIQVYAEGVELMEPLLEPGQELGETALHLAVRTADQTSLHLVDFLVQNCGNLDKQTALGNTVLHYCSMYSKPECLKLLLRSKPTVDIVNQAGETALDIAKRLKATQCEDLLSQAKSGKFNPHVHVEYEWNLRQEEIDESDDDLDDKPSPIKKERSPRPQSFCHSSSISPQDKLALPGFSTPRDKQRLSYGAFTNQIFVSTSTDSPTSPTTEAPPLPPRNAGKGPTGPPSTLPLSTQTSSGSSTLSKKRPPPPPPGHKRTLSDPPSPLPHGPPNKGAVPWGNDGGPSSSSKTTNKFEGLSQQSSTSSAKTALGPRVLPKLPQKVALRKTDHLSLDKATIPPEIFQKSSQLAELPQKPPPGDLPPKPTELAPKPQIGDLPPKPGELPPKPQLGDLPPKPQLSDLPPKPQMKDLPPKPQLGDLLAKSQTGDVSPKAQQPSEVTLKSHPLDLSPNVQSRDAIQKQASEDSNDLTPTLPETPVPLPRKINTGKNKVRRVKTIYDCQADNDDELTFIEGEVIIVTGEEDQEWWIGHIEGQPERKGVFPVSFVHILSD

With `O=Cc1ccc2cccc3c2c1NC(C(F)(F)F)=N3` the EC50 [1] was 24.8 µM (active), the IC50 [2] was 9.2 µM (active) and the IC50 (Beta-lactamase [3]) was 32.6 µM (inactive). For the same compound, the EC50 [4] was 27.6 µM (active) and the IC50 (Beta-lactamase [5]) was 27.9 µM (inactive).

In the case of `Nc1ccc(Cc2ccc(N)c(O)c2)cc1O`, the IC50 [6] is reported as 26.7 µM (inactive), the IC50 [7] is reported as > 54 µM (active) and the IC50 [8] is reported as 27 µM (active). For the same compound, the IC50 [9] was > 100 µM (inactive).

With `N#Cc1c(O)nc(SCc2cccc(Cl)c2)nc1-c1ccccc1` the EC50 [10] was > 53 µM (inactive), the IC50 [11] was < 0.368 µM (active) and the AC50 [12] was 4.86 µM (active). The IC50 [13] was > 20 µM (inactive).

In the case of `O=c1c([N+](=O)[O-])c(NC2CCCCC2)c2ccccc2n1-c1ccccc1`, the EC50 [10] is reported as > 53 µM (inactive), the IC50 [11] is reported as 4.33 µM (active) and the IC50 [13] is reported as > 20 µM (inactive).

For `O=P(O)(O)c1cc(-c2ccccc2)oc1-c1ccccc1`, the IC50 (Beta-lactamase [3]) was 22.5 µM (inactive) and the IC50 (Beta-lactamase [5]) was > 59.6 µM (inactive).

With `COC(=O)c1ccc(NC(=O)c2ccc(NC(=O)c3ccco3)cc2)cc1` the IC50 [14] was > 50 µM (inactive), the IC50 [15] was 5.25 µM (active) and the IC50 (Prothrombin) was 73 µM (active). For the same compound, the IC50 [16] was 25.8 µM (inactive), the IC50 [17] was > 100 µM (inactive) and the IC50 [18] was 23 µM (active).

For `Cc1ccc(C(=O)Nc2cccc(NC(=O)c3ccc(C)c([N+](=O)[O-])c3)n2)cc1[N+](=O)[O-]`, the IC50 [19] was 4.55 µM (active) and the IC50 [16] was 41.9 µM (inactive).

With `C=CCc1c(C)nc(-c2ccccc2)nc1Nc1ccc(O)cc1` the CC50 [20] was 100 µM (active) and the IC50 [21] was 38.1 µM (active).
